Source: a melting point compilation (Tetko et al.)

Cc1cc([N+](=O)[O-])cc(C)c1O
melting point: 164 to 169 °C

O=C1CCC(=O)N1CN1C(=O)C(=Cc2ccco2)SC1=S
melting point: 166 °C

Cc1ccc(Br)cc1O
melting point: 79 °C

CC(C=O)=CN
melting point: 101 to 103 °C

O=C1NN=C(C(F)(F)F)C1=NNc1cc(-c2ccccc2)n[nH]1
melting point: 271 °C

CSc1nnc(C(C)(C)C)c(=O)n1N
melting point: 126 °C

Nc1ccc(O)c2c1C(=O)c1c(O)ccc(N)c1C2=O
melting point: 300 °C

COc1ncccc1N
melting point: 67 to 68 °C

CC(C)CC(C)(C)CC(C)(C)CC(C)(C)C
melting point: -98 °C

C#CCON1C(=O)c2ccccc2C1=O
melting point: 149 to 152 °C

Cc1c(C(=O)O)cnn1-c1ccc(Cl)cc1
melting point: 201 to 202 °C

O=C(O)c1cccc(S(=O)(=O)Oc2ccc3ccccc3c2)c1
melting point: 155 °C

O=c1c(O)c(-c2ccc(O)c(O)c2)oc2cc(O)cc(O)c12
melting point: 316 °C

C#CC1(O)CCC2C3CCC4=CC(=O)CCC4C3CCC21CC (configuration not stated)
melting point: 240 °C

O=C(c1ccccc1)c1ccccc1Cl
melting point: 46 °C

Clc1cccc(-c2cccc(Cl)c2)c1
melting point: 29 °C

CC(C)(C)c1cc(CC#N)cc(C(C)(C)C)c1O
melting point: 111 °C

N#Cc1ccc[nH]c1=O
melting point: 222 to 225 °C

CCCCC(C)CCO (configuration not stated)
melting point: -90 °C

Cc1cc(C)c2c(c1C)C(=O)C2
melting point: 73 °C

NC=NO
melting point: 114 °C

NNC(=S)Nc1ccc(OCc2ccccc2)cc1
melting point: 167 to 170 °C

CCCCCCCOc1ccc(N)cc1
melting point: 45 °C

ON=C(c1ccc(F)cc1)c1ccc(F)cc1
melting point: 140 °C

CC1=C(C(=O)OC(C)(C)C)C(c2ccco2)NC(=O)N1 (configuration not stated)
melting point: 208 °C

Cc1cccc(C)c1NC1=NCCCS1
melting point: 140 °C

O=Cc1ccc(Br)cn1
melting point: 95 °C

CC(C)(C)N(NC(=O)c1ccccc1)C(=O)c1ccccc1I
melting point: 188 °C

O=C1COc2ccccc21
melting point: 102 °C

IC(I)=C(I)I
melting point: 187 °C

Cc1n[nH]c(C)c1N
melting point: 192 °C

Nc1ccc(Cl)cc1C(=O)NCc1cccs1
melting point: 157 to 158 °C

CN1CCCC1c1cccnc1 (configuration not stated)
melting point: -79 °C

O=CC=Cc1ccc([N+](=O)[O-])cc1
melting point: 142 °C

CC(=O)c1cc(Cl)ccc1Cl
melting point: 12 °C

O=C1CCC2C1C1CCC(=O)C21 (configuration not stated)
melting point: 266 °C

Cc1ccc(C(C)CCC(=O)O)cc1 (configuration not stated)
melting point: 42 °C

Cc1cc(Br)cc([N+](=O)[O-])c1
melting point: 83 °C

Cc1ccccc1C=Cc1ccccc1C
melting point: 83 °C

CC(=O)Oc1ccc(Cl)cc1
melting point: 9 °C

Cc1nc(-c2ccc(Cl)cc2)sc1C(=O)Cl
melting point: 180 to 183 °C

O=C1c2ccccc2C(=O)c2c(NCCO)ccc(NCCO)c21
melting point: 248 °C

CNC(=O)ON=C(C)C(C)S(C)(=O)=O (configuration not stated)
melting point: 87 °C

Ic1ccc(-n2cccn2)cc1
melting point: 91 to 92 °C

Cc1nc(-c2ccc(C(F)(F)F)cc2)sc1C#N
melting point: 155 to 156 °C

Nc1c(Br)cc(Br)c(F)c1C(=O)O
melting point: 235 to 238 °C

CC(=O)OC1(C(C)=O)CCC2C3C=C(Cl)C4=CC(=O)CCC4(C)C3CCC21C (configuration not stated)
melting point: 213 °C

CC(=O)C=NO
melting point: 69 °C

NCCNc1ccc([N+](=O)[O-])cn1
melting point: 126 to 128 °C

CC(=O)Nc1cc(NC(C)=O)c(C=Cc2ccccc2)cc1C=Cc1ccccc1
melting point: 224 °C

Cn1c(=O)c(C2=NNC(=O)C2=Cc2ccc3c(c2)OCO3)c(O)c2ccccc21
melting point: 265 °C

C[Si](C)(C)c1cnc([Si](C)(C)C)s1
melting point: 55 °C

C#CCCCCCCCC
melting point: -44 °C

c1ccc(OCc2ccc(CCCN3CCOCC3)cc2)cc1
melting point: 52.5 °C

N#CC(=S)Nc1ccccc1
melting point: 75 to 80 °C

O=CC=O
melting point: 15 °C

CCC(=O)OC1CCC2C3CCC4=CC(=O)CCC4(C)C3CCC12C (configuration not stated)
melting point: 120 °C

CC(C)(C)C(Br)Br
melting point: 14 °C

c1ccc2c(c1)-c1nc3ccccc3nc1-2
melting point: 203 °C

COC(=O)c1c(C)cc(OC(=O)c2c(C)cc(O)c(C=O)c2O)c(C)c1O
melting point: 195 °C

Cc1ccc(CCCC(=O)O)cc1
melting point: 57 °C

O=Cc1csc(-c2ccc(C(F)(F)F)cc2)n1
melting point: 103 to 105 °C

CC(=O)c1ccccc1O
melting point: 5 °C

CC(=O)Oc1ccc(C(=C2CCCCC2)c2ccc(OC(C)=O)cc2)cc1
melting point: 136 °C

O=C(O)c1cc(F)c(F)c(F)c1
melting point: 98 °C

c1ccc(C2=NOC(c3ccccc3)C2)cc1 (configuration not stated)
melting point: 75 °C

C=C1C(C)C2C(Cc3ccccc3)NC(=O)C23OC(=O)C=CC(=O)CCCC(C)CC=CC3C1O (configuration not stated)
melting point: 193 to 195 °C

C1COCCOCCOCCO1
melting point: 16 °C

Clc1ccc(C2(Cn3cncn3)CC(Br)CO2)c(Cl)c1 (configuration not stated)
melting point: 84 °C

C=C(C)C1(O)C2OC(=O)C1C1(O)C3OC3C3(CO3)C1(C)C2O (configuration not stated)
melting point: 225 °C

CCCC(C)(O)C#CC(C)(O)CCC (configuration not stated)
melting point: 68.5 °C

COc1cc(N)c(C#N)cc1OC
melting point: 99 °C

O=C1C=C(NCc2cccc(Cl)c2)C(=O)c2ccccc21
melting point: 191 °C

O=c1c2ccccc2c(=O)n2n1C1C=CC2C1
melting point: 231 °C

COC1=C(OC)C(C(CBr)OC(C)=O)OC1=O (configuration not stated)
melting point: 74 °C

Cc1cc([N+](=O)[O-])ccc1N=C=O
melting point: 83 °C

Cc1c(Cl)ccc(OC(C)C(=O)Nc2ccccc2)c1Cl (configuration not stated)
melting point: 146 °C

Cc1nc(-c2cccc(C(=O)Cl)c2)no1
melting point: 93 °C

CCOC(=O)C1=C(C)NC(=O)NC1c1cccc(OC)c1OC (configuration not stated)
melting point: 195 °C

Nc1ccc(C(=O)O)cc1[N+](=O)[O-]
melting point: 290 °C

OC1C(C2COC3(CCCCC3)O2)OC2OC3(CCCCC3)OC21 (configuration not stated)
melting point: 129 to 135 °C

COc1ccc(NN=C2C(=O)NC(=S)NC2=O)cc1
melting point: 246 °C

N#CCCNCCC#N
melting point: -6 °C

C=C1CCC1
melting point: -135 °C

NC(=O)C(Cc1ccccc1)NC(=O)OCc1ccccc1 (configuration not stated)
melting point: 162 to 164 °C

O=C1C(Cl)=C(Cl)C(=O)C(Cl)=C1Cl
melting point: 290 °C

O=C(O)C(=O)c1ccc([N+](=O)[O-])cc1
melting point: 110 °C

CCOC(=O)CCC(=O)CC1(O)C2(Cl)C3(Cl)C4(Cl)C(Cl)(Cl)C5(Cl)C3(Cl)C1(Cl)C5(Cl)C42Cl (configuration not stated)
melting point: 91 °C

CC(C)(C)C(=O)C(Oc1ccc(Cl)cc1)n1cncn1 (configuration not stated)
melting point: 82.3 °C

COC(=O)CC1CCC(NC(=O)OC(C)(C)C)CC1 (configuration not stated)
melting point: 81 °C

Brc1ccc(Oc2cc(Br)c(Br)cc2Br)c(Br)c1
melting point: 82 °C

COc1ccc(CBr)cc1C(F)(F)F
melting point: 77 °C

CN(C)C(C)(C)CO
melting point: 19 °C

Cc1onc(-c2c(Cl)cccc2Cl)c1CCl
melting point: 61 to 63 °C

O=C(CBr)c1cc(-c2ccc(Cl)cc2Cl)no1
melting point: 85 to 87 °C

O=C(O)Cc1ccc2c(c1)OCO2
melting point: 128 to 132 °C

O=C1C(Br)=C(Br)C(=O)C(Br)=C1Br
melting point: 292 to 294 °C

CCN(CC)C(=O)n1cnc(S(=O)(=O)c2c(C)cc(C)cc2C)n1
melting point: 115 °C

CC(C)(C)c1ccc(OCC#N)cc1
melting point: 69 °C

O=C(NC(Cc1ccco1)C(=O)O)OCC1c2ccccc2-c2ccccc21 (configuration not stated)
melting point: 130 °C

CC(C)OP(=O)(CCP(=O)(OC(C)C)OC(C)C)OC(C)C
melting point: 35.5 °C

COc1ccc(SC)cc1
melting point: 22 to 23 °C

FC(F)(F)C(F)(F)C(F)(F)C(F)(F)C(F)(F)C(F)(F)I
melting point: -45 °C

O=C(Nc1ccc([N+](=O)[O-])cc1)Nc1ccc([N+](=O)[O-])cc1
melting point: 312 °C

Clc1ccc(OCCCCBr)cc1
melting point: 30 to 31 °C

Cc1nccc(-c2cccc(N)c2)n1
melting point: 108 to 109 °C

COc1cc2c(cc1OC)C(c1ccc(O)cc1)N(C(C)=O)CC2 (configuration not stated)
melting point: 145 to 147 °C

O=C(O)CCC12CC3CC(CC(C3)C1)C2
melting point: 147 to 148 °C

O=C1CCCN1c1ccc(F)cc1
melting point: 55 to 58 °C

O=C(O)c1csc(-c2ccncc2)n1
melting point: 304 to 307 °C

O=C(O)CCn1ccnc1
melting point: 147 to 149 °C

CCc1nc(N)nc(Cl)c1C
melting point: 138 to 140 °C

Cc1nc(C(=O)O)cs1
melting point: 148 to 149 °C

O=C(O)C(=S)CC1CCCC(CC(=S)C(=O)O)C1 (configuration not stated)
melting point: 85 °C

Nc1ccc(Nc2ccc([N+](=O)[O-])cc2[N+](=O)[O-])cc1
melting point: 188 °C

C=C(C)[C@H]1CC=C(C)C(=O)C1
melting point: 89 °C

CN1C(=O)CN=C(c2ccccc2)c2cc([N+](=O)[O-])ccc21
melting point: 157 °C

CC(=O)c1c(-c2ccc(Cl)cc2Cl)noc1C
melting point: 55 to 59 °C

Cc1ccc(NN=C2C(=O)NN(c3ccccc3)C2=O)cc1
melting point: 277 °C

CCCNC(=O)COC(=O)c1ccccc1
melting point: 89.5 °C

O=c1ccc([N+](=O)[O-])cn1Cc1ccccc1
melting point: 96 °C

CCCCC(C#N)(Cn1ccnc1)c1ccccc1 (configuration not stated)
melting point: 161 °C

Cc1nc(NC(=O)NS(=O)(=O)c2cccs2)nc(Cl)c1C
melting point: 201 to 203 °C

CN1C2CC(=O)CC1C(O)C2 (configuration not stated)
melting point: 120 to 123 °C

Cc1cc(-c2ccc(NC=O)c(C)c2)ccc1NC=O
melting point: 265 to 270 °C

CCOC(=O)c1sc(SC)c(S(C)(=O)=O)c1N
melting point: 111 to 113 °C

O=[N+]([O-])c1cccc(OCCBr)c1
melting point: 39 °C

Cc1cc(C)c(C(C)C)cc1C
melting point: 21 °C

C#CC
melting point: -103 °C

COc1ccccc1C(=S)N1CCOCC1
melting point: 86 °C

COc1c(C)cc(C(=O)O)cc1C
melting point: 190 to 194 °C

CC12C=CC(=O)C=C1C(F)CC1C2C(O)CC2(C)C1CCC2(O)C(=O)CO (configuration not stated)
melting point: 210 °C
